Peptide text beside a SMILES is read from it. * marks the point of attachment. Cbz = O=C(OCc1ccccc1)*
How the values were obtained:
[1] = system: WAS−/−/WASp Y107C Jurkat T-cells; assay: Lymphocyte migration on ICAM-1/SDF-1α, WAS−/−/WASp Y107C cells; assay type: cell-based, human
Method: WASp knockout Jurkat T-cell lines that express only exogenous YFP-WASp R86C (WAS^−/−/WASp R86C) or Y107C (WAS^−/−/WASp Y107C) were pretreated with SMC #34 in comparison to cells treated with the control. Cells that completely lack WASp expression (WAS^−/−) were also treated with the control. Cellular migration was tracked over a 20-min period on ICAM-1/SDF-1α-coated cover glasses, as described in Experimental procedures.
Approximately 1×10^5 lymphocytes were seeded over chambered coverslips (LabTek) pre-coated with 6 μg/ml ICAM-1 and 2 μg/ml SDF-1α. Cells were incubated at 37° C., 5% CO2 and DIC images were acquired with the Zeiss Observer Z1 inverted microscope every 5 s for 20 min under a 20× objective lens using Zen software. The random movement (Displacement and velocity) of the cells was automatically tracked and analyzed using TrackMate plugin of ImageJ software. An individual trace was assigned to each of the analyzed cells.

WASp = WASp expression in Meg-01 megakaryocyte cell line (western blot); assay type: cell-based, human; conditions: Meg-01 cells, treated vs untreated
Method: Freshly-isolated platelets were stimulated with 10 μM of TRAP-6 for the indicated time points, followed by lysis. WIP (FIG. 7A) or WASp (FIG. 7B) were immunoprecipitated from the lysates and analyzed by western blot for co-immunoprecipitation, using anti-WASp, anti-WIP or anti-PKCθ antibodies. WASp immunoprecipitates were immunoblotted for WASp ubiquitylation using anti-ubiquitin (Ub) antibody (FIG. 7C). Ubiquitylated WASp appears as a smear of bands above the MW of 65 kDa with a prominent band at ˜81 kDa. […] Blots are representative of three independent experiments. Meg-01 megakaryocyte cell line was activated in the presence (+) or absence (−) of MG132, followed by lysis (FIG. 7E). WASp ubiquitylation was determined by co-immunoprecipitation analysis as in FIG. 7C. FIG. 7F illustrates Meg-01 cells that were transfected with PKCθ-specific siRNA (+) or non-specific (NS) siRNA (−). 24 h later, the cells were stimulated and lysed. PKCθ and WASp protein expression levels were analyzed by western blot with anti-PKCθ and anti-WASp antibodies, and with anti-GAPDH as loading control. Relative protein expression was determined by densitometric analysis and is presented below the corresponding lanes. […] Blots are representative of three independent experiments.
Human primary PBMCs were isolated from whole blood of healthy donors, as previously described (Barda-Saad et al, 2005). […]

SMILES | migration ([1]; WAS−/−/WASp Y107C cells, vs control) | mean cell displacement ([1]; WAS−/−/WASp Y107C, 20 min, mean ± SE) | WASp in whole cell lysates (W.C.L) (WASp)
CC1CCCC(C)N1C(=O)CSc1nnc(COc2cccc3cccnc23)o1 (stereo not drawn) [SMC #34, 1-(2,6-dimethylpiperidin-1-yl)-2-[[5-(quinolin-8-yloxymethyl)-1,3,4-oxadiazol-2-yl]sulfanyl]ethanone] | significantly increased | 74.24±8.16 | –
CC(C)C[C@@H](C=O)NC(=O)[C@H](CC(C)C)NC(=O)[C@H](CC(C)C)NC(=O)OCc1ccccc1 [MG132] (Cbz-Leu-Leu-Leu-aldehyde) | – | – | more WASp was detected

From patent US12150940B2, “WASp-protecting small molecules, compositions, methods and uses thereof in the treatment of innate and acquired immune-related disorders or conditions” (BAR ILAN UNIVERSITY, priority 2016, dated 2024)
